{"source": "patent US20100137398A1", "about": "“USE OF HDAC INHIBITORS FOR THE TREATMENT OF GASTROINTESTINAL CANCERS” (NOVARTIS AG, priority 2007, published 2010)", "tested_on": "Colo205 colon cancer xenograft", "assay": "Colo205 colon cancer xenograft model, tumor growth inhibition and delay", "format": "in vivo, Female athymic nude mice", "conditions": "LBH589 30 mg/kg iv Mon/Wed/Fri for 3 weeks, 5-FU 75 mg/kg ip once a week for 3 weeks, or both", "experimental": "Female athymic nude mice-were implanted subcutaneously with Col6205 colon cancer cells. When tumors reached a medan tumor volume of 220 mm3, mice were randomized into groups of 10 mice. Mice were treated with LBH589 at 30 mg/kg intravenously on Monday, Wednesday, Friday per week for 3 weeks, 75 mg/kg of 5-Fluorouracil intraperitoneally once a week for 3 weeks, or combination of the two agents. For tumor growth inhibition (FIG. 2A), compound activity was measured as the percent change in tumor volume of treated animals over control animals (% T/C). The percentage of regression was determined as the percent change in the final tumor volume at the end of the study over the starting tumor volume. For tumor growth delay (FIG. 2B), compound activity was measured as the change in median calculated time to the study end point (TTE), which was predefined as tumor volume of 1000 mm^3.", "data": [{"smiles": "O=c1[nH]cc(F)c(=O)[nH]1", "note": "[5-FU, 5-Fluorouracil, reference compound]", "values": [{"measurement": "tumor growth inhibition (TGI) and tumor growth delay (TGD)", "result": "led to tumor growth inhibition (TGI) and tumor growth delay (TGD)"}, {"measurement": "Median TTE (time to study end point, tumor volume of 1000 mm^3)", "setting": "vehicle 39.5 days", "result": 44.5, "unit": "days"}]}]}
